One test deals with Staphylococcus aureus. Nature of the test: Antimicrobial activity against Staphylococcus aureus. The format is functional, organism-based.
The test system of the next test is Bacillus subtilis. Nature of the test: Antimicrobial activity against Bacillus subtilis. The test is classed as functional, organism-based.

Activity calls are given as the source filed them. The calls are words filed in the database; no cut-off is given here.

The record followed here is ChEMBL document CHEMBL1158909, “A New Brominated Diphenyl Ether from a Philippine Dysidea Species” (J Nat Prod, 1990).

For `Oc1c(Br)c(Br)c(Br)c(Br)c1Oc1ccccc1Br`, the outcome in the test on Staphylococcus aureus and with Bacillus subtilis was Active.

With `COc1c(Br)c(Br)c(Br)c(Br)c1Oc1ccc(Br)cc1Br`, the outcome in the test with Staphylococcus aureus and in the test on Bacillus subtilis was inactive.

Take `Oc1c(Br)c(Br)c(Br)c(Br)c1Oc1ccc(Br)cc1Br`: the outcome with Staphylococcus aureus and in the test with Bacillus subtilis was Active.

For `COc1c(Br)c(Br)c(Br)c(Br)c1Oc1ccccc1Br`, the outcome in the test with Staphylococcus aureus and in the test with Bacillus subtilis was inactive.
